From US10844062B2, “Pyridine derivative inhibiting RAF kinase and vascular endothelial growth factor receptor, method for preparing same, pharmaceutical composition containing same, and use thereof” (SAMJIN PHARMACEUTICAL CO., LTD., priority 2016, dated 2020)
pIC50: −log10 of the molar value.

What follows are compounds tested on LS513 KRAS G12V (colon) (assay: MTT assay). Conditions: Homo sapiens, LS-513, 72 h, Table 4; 3 days incubation; read-out: MTT assay IC50 KRAS mutant (Colon) LS513 KRAS G12V.
Type: cell-based
Experimental: MTT assay is frequently used for the purpose of primary screening for the sensitivity of anticancer agents and to examine cytotoxicity. When cancer cells are treated with varying concentrations of any anticancer agent for a predetermined time to induce death of the cells and are then treated with MTT, and when the formation of formazan is measured, the concentration of the anticancer agent, at which about 50% of the cells survive, can be determined. This concentration value is called IC50. IC50 values differ between drugs, and thus can be characteristic of the drugs. Using this method, the effects of anticancer agents against cell proliferation can be quantitatively compared. Thus, in order to measure the cytotoxicity of samples, MTT assay was performed using CellTiter 96 Non-radioactive Cell Proliferation Assay Kit (Promega).
Cells in a cell suspension were counted with a hematocytometer, and then 200 μL of the cell suspension was added to each well of a 96 well plate at a desired concentration (cell amount determined depending on a cell line). After cell seeding, the cells were incubated in a CO2 incubator at 37° C. overnight. After one day of cell stabilization, the cells were treated with desired concentrations of the compounds. The cells were incubated in a CO2 incubator at 37° C. for 3 days, and then the sample was removed, and 200 μL of MTT solution was added to each well. After 2 hours of incubation, the MTT dilution was carefully shaken, and 200 μL of DMSO was added to each well, followed by shaking with a plate shaker for 60 minutes.
Compound `CC(C)(C#N)c1cccc(C(=O)Nc2ccc(Nc3ncccc3-c3ncnc4[nH]cnc34)c(F)c2)c1` [Example 39, N-(4-(3-(9H-Purin-6-Yl)Pyridin-2-Ylamino)-3-Fluorophenyl)-3-(2-Cyanopropan-2-Yl)Benzamide] has a pIC50 of less than 5.00. With `O=C(Nc1ccc(F)c(Nc2ncccc2-c2ncnc3[nH]cnc23)c1F)c1cc([N+](=O)[O-])cc(C(F)(F)F)c1` [Example 40, N-(3-(3-(9H-Purin-6-Yl)Pyridin-2-Ylamino)-2,4-Difluorophenyl)-3-Nitro-5-(Trifluoromethyl)Benzamide] the pIC50 was 6.79. In the case of `CC(C)(C#N)c1cc(C(=O)Nc2ccc(F)c(Nc3ncccc3-c3ncnc4[nH]cnc34)c2F)ccc1Cl` [Example 41, N-(3-(3-(9H-Purin-6-Yl)Pyridin-2-Ylamino)-2,4-Difluorophenyl)-4-Chloro-3-(2-Cyanopropan-2-Yl)Benzamide], the pIC50 was 6.32. `CC(C)(C#N)c1cccc(C(=O)Nc2ccc(F)c(Nc3ncccc3-c3ncnc4[nH]cnc34)c2F)c1Cl` [Example 42, N-(3-(3-(9H-Purin-6-Yl)Pyridin-2-Ylamino)-2,4-Difluorophenyl)-2-Chloro-3-(2-Cyanopropan-2-Yl)Benzamide] was tested, and the pIC50 was 5.88. In the case of `CC(C)(C#N)c1cc(F)cc(C(=O)Nc2ccc(F)c(Nc3ncccc3-c3ncnc4[nH]cnc34)c2F)c1` [Example 43, N-(3-(3-(9H-Purin-6-Yl)Pyridin-2-Ylamino)-2,4-Difluorophenyl)-3-(2-Cyanopropan-2-Yl)-5-Fluorobenzamide], the pIC50 was 6.40. `CC(C)(C#N)c1cc(C(=O)Nc2ccc(F)c(Nc3ncccc3-c3ncnc4[nH]cnc34)c2F)cc(F)c1F` [Example 44, N-(3-(3-(9H-Purin-6-Yl)Pyridin-2-Ylamino)-2,4-Difluorophenyl)-3-(2-Cyanopropan-2-Yl)-4,5-Difluorobenzamide] showed a pIC50 of 5.88. Compound `O=C(Nc1ccc(F)c(Nc2ncccc2-c2ncnc3[nH]cnc23)c1F)c1cccc(Cl)c1` [Example 45, N-(3-(3-(9H-Purin-6-Yl)Pyridin-2-Ylamino)-2,4-Difluorophenyl)-3-Chlorobenzamide] has a pIC50 of less than 5.00. Work on `CN(C)c1cccc(C(=O)Nc2ccc(F)c(Nc3ncccc3-c3ncnc4[nH]cnc34)c2F)c1` [Example 46, N-(3-(3-(9H-Purin-6-Yl)Pyridin-2-Ylamino)-2,4-Difluorophenyl)-3-(Dimethylamino)Benzamide] yielded a pIC50 of 5.15. For `Cc1cccc(C(=O)Nc2ccc(F)c(Nc3ncccc3-c3ncnc4[nH]cnc34)c2F)c1` [Example 47, N-(3-(3-(9H-Purin-6-Yl)Pyridin-2-Ylamino)-2,4-Difluorophenyl)-3-Methylbenzamide], the pIC50 was less than 5.00. With `O=C(Nc1cccc(Nc2ncccc2-c2ncnc3[nH]cnc23)c1)c1cccc(Cl)c1` [Example 48, N-(3-(3-(9H-Purin-6-Yl)Pyridin-2-Ylamino)Phenyl)-3-Chlorobenzamide] the pIC50 was 5.60. Work on `CC(C)(C#N)c1cccc(C(=O)Nc2ccc(F)c(Nc3ncccc3-c3ncnc4[nH]cnc34)c2)c1` [Example 49, N-(3-(3-(9H-Purin-6-Yl)Pyridin-2-Ylamino)-4-Fluorophenyl)-3-(2-Cyanopropan-2-Yl)Benzamide] yielded a pIC50 of 6.72. For `O=C(Nc1ccc(F)c(Nc2ncccc2-c2ncnc3[nH]cnc23)c1)c1cccc(C(F)(F)F)c1` [Example 50, N-(3-(3-(9H-Purin-6-Yl)Pyridin-2-Ylamino)-4-Fluorophenyl)-3-(Trifluoromethyl)Benzamide], the pIC50 was 6.66. Work on `O=C(Nc1cccc(Nc2ncccc2-c2ncnc3[nH]cnc23)c1)c1cccc(C(F)(F)F)c1` [Example 51, N-(3-(3-(9H-Purin-6-Yl)Pyridin-2-Ylamino)Phenyl)-3-(Trifluoromethyl)Benzamide] yielded a pIC50 of 5.25. With `O=C(Nc1ccc(F)c(Nc2ncccc2-c2ncnc3[nH]cnc23)c1F)c1ccc([N+](=O)[O-])cc1` [Example 52, N-(3-(3-(9H-Purin-6-Yl)Pyridin-2-Ylamino)-2,4-Difluorophenyl)-4-Nitrobenzamide] the pIC50 was less than 5.00. Compound `Nc1cccc(C(=O)Nc2ccc(F)c(Nc3ncccc3-c3ncnc4[nH]cnc34)c2F)c1` [Example 54, N-(3-(3-(9H-Purin-6-Yl)Pyridin-2-Ylamino)-2,4-Difluorophenyl)-3-Aminobenzamide] has a pIC50 of less than 5.00. `COC(=O)Nc1cccc(C(=O)Nc2ccc(F)c(Nc3ncccc3-c3ncnc4[nH]cnc34)c2F)c1` [Example 55, Methyl 3-(3-(3-(9H-Purin-6-Yl)Pyridin-2-Ylamino)-2,4-Difluorophenylcarbamoyl)Phenylcarbamate] gave a pIC50 of less than 5.00. `O=C(Nc1ccc(F)c(Nc2ncccc2-c2ncnc3[nH]cnc23)c1F)c1cnccn1` [Example 56, N-(3-(3-(9H-Purin-6-Yl)Pyridin-2-Ylamino)-2,4-Difluorophenyl)Pyrazine-2-Carboxamide] showed a pIC50 of less than 5.00. Compound `O=C(Nc1ccc(F)c(Nc2ncccc2-c2ncnc3[nH]cnc23)c1F)c1ccccc1` [Example 57, N-(3-(3-(9H-Purin-6-Yl)Pyridin-2-Ylamino)-2,4-Difluorophenyl)Benzamide] has a pIC50 of less than 5.00. In the case of `O=C(Nc1ccc(F)c(Nc2ncccc2-c2ncnc3[nH]cnc23)c1F)c1cc(C(F)(F)F)cc(C(F)(F)F)c1` [Example 58, N-2,4-Difluoro-3-[3-(9H-Purin-6-Yl)Pyridin-2-Ylamino)-Phenyl-3,5-Bistrifluoromethylbenzamide], the pIC50 was 6.39. Compound `O=C(Nc1cc(Nc2ncccc2-c2ncnc3[nH]cnc23)ccc1F)c1ccc(Cl)c(C(F)(F)F)c1` [Example 61, 4-Chloro-N-2-Fluoro-5-[3-(9H-Purin-6-Yl)Pyridin-2-Ylamino)Phenyl-3-(Trifluoromethyl)Benzamide] has a pIC50 of 6.36. Compound `O=C(Nc1cc(Nc2ncccc2-c2ncnc3[nH]cnc23)ccc1F)c1cc([N+](=O)[O-])cc(C(F)(F)F)c1` [Example 62, N-2-Fluoro-5-[3-(9H-Purin-6-Yl)Pyridin-2-Ylamino)Phenyl-3-Nitro-5-(Trifluoromethyl)Benzamide] has a pIC50 of 6.15. `Cc1cccc(C(=O)Nc2cc(Nc3ncccc3-c3ncnc4[nH]cnc34)ccc2F)n1` [Example 64, N-2-Fluoro-5-[3-(9H-Purin-6-Yl)Pyridin-2-Ylamino)Phenyl-(6-Methylpyridin-2-Yl)Benzamide] showed a pIC50 of 6.52. Compound `O=C(Nc1cc(Nc2ncccc2-c2ncnc3[nH]cnc23)ccc1Cl)c1cccc(C(F)(F)F)c1` [Example 66, N-2-Chloro-5-[3-(9H-Purin-6-Yl)Pyridin-2-Ylamino)Phenyl-3-Trifluoromethylbenzamide] has a pIC50 of 6.87. `O=C(Nc1cc(Nc2ncccc2-c2ncnc3[nH]cnc23)ccc1Cl)c1cc(F)cc(C(F)(F)F)c1` [Example 67, N-2-Chloro-5-[3-(9H-Purin-6-Yl)Pyridin-2-Ylamino)Phenyl-3-Fluoro-5-Trifluoromethylbenzamide] gave a pIC50 of 5.18. In the case of `Cc1ccc(Nc2ncccc2-c2ncnc3[nH]cnc23)cc1NC(=O)c1cccc(C(F)(F)F)c1` [Example 68, N-2-Methyl-5-[3-(9H-Purin-6-Yl)Pyridin-2-Ylamino)Phenyl-3-Trifluoromethylbenzamide], the pIC50 was 5.18. With `COc1ccc(Nc2ncccc2-c2ncnc3[nH]cnc23)cc1NC(=O)c1cccc(C(F)(F)F)c1` [Example 69, N-2-Methoxy-5-[3-(9H-Purin-6-Yl)Pyridin-2-Ylamino)Phenyl-3-Trifluoromethylbenzamide] the pIC50 was 5.15. `COc1ccc(NC(=O)c2cccc(C(F)(F)F)c2)cc1Nc1ncccc1-c1ncnc2[nH]cnc12` [Example 70, N-4-Methoxy-5-[3-(9H-Purin-6-Yl)Pyridin-2-Ylamino)Phenyl-3-Trifluoromethylbenzamide] was tested, and the pIC50 was 6.12.
